Patent US20060069132A1, “Azolecarboxamide herbicides” (priority 2004, published 2006)

Columns and labels:
[1] = tested on: lambsquarters; assay: Test C pre-/postemergence herbicide test; type: in vivo, Chenopodium album
In short: (§1)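 Pre- and postemergence application, solvent/surfactant formulation; post at 1- to 4-leaf stage (2–18 cm). Greenhouse 12–14 d. Visual rating vs controls, 0 = no effect, 100 = complete control.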

[2] = tested on: cocklebur; assay: Test C pre-/postemergence herbicide test; type: in vivo, Xanthium strumarium; conditions: for Cocklebur plant response rating: 500 g ai/ha
In short: as §1

[3] = tested on: kochia; assay: Test C pre-/postemergence herbicide test; type: in vivo, Kochia scoparia
In short: as §1

[4] = tested on: corn; assay: Test C pre-/postemergence herbicide test; type: in vivo, Zea mays
In short: as §1

[5] = tested on: chickweed; assay: Test C postemergence herbicide test; type: in vivo, Stellaria media
Experimental: At the same time, plants selected from these crop and weed species and also winter barley (Hordeum vulgare L.), blackgrass (Alopecurus myosuroides Huds.), canarygrass (Phalaris minor Retz.), chickweed (Stellaria media (L.) Vill.), downy bromegrass (Bromus tectorum L.), green foxtail (Setaria viridis (L.) Beauv.), Italian ryegrass (Lolium multiflorum Lam.), wheat (Triticum aestivum L.), wild oat (Avenafatua L.) and windgrass (Apera spica-venti (L.) Beauv.) were treated with postemergence applications of some of the test chemicals formulated in the same manner. Plants ranged in height from 2 to 18 cm (1- to 4-leaf stage) for postemergence treatments. Plant species in the flooded paddy test consisted of rice (Oryza sativa), smallflower umbrella sedge (Cyperus difformis L.), ducksalad (Heteranthera limosa (Sw.) Willd.) and barnyardgrass (Echinochloa crus-galli (L.) Beauv.) grown to the 2-leaf stage for testing. Treated plants and controls were maintained in a greenhouse for 12 to 14 days, after which time all species were compared to controls and visually evaluated. Plant response ratings, summarized in Table C, are based on a scale of 0 to 100 where 0 is no effect and 100 is complete control. A dash (-) response means no test result.

[6] = tested on: johnsongrass; assay: Test C pre-/postemergence herbicide test; type: in vivo, Sorghum halepense
In short: as §1

[7] = tested on: barnyardgrass; assay: Test A pre-/postemergence herbicide test; type: in vivo, Echinochloa crus-galli
In short: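 Visual injury rating on a 0–100 scale (0 no effect, 100 complete control) versus untreated controls, about ten days after treatment in greenhouse. Pre: directed soil spray onto seeded sandy loam. Post: spray to runoff on plants 2–10 cm tall at one- to two-leaf stage.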

[8] = tested on: woolly cupgrass; assay: Test C pre-/postemergence herbicide test; type: in vivo, Eriochloa villosa
In short: as §1

[9] = tested on: Surinam grass; assay: Test C pre-/postemergence herbicide test; type: in vivo, Urochloa decumbens
In short: as §1

[10] = tested on: rice; assay: Test C flooded paddy test; type: in vivo, Oryza sativa
In short: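 Injury scored visually against controls on a 0 (no effect) to 100 (complete control) scale, 12 to 14 days after treatment in greenhouse. Flooded paddy plants treated at 2-leaf stage; postemergence plants at 1- to 4-leaf stage, 2 to 18 cm tall.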

[11] = tested on: downy bromegrass; assay: Test C postemergence herbicide test; type: in vivo, Bromus tectorum
In short: (§2)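 Weeds and wheat were sprayed after emergence, at a height of 2 to 18 cm (1–4 leaves), and paddy barnyardgrass was flooded and treated at two leaves. Assessment took place 12–14 days later in the greenhouse on a 0-to-100 visual control scale. A dash means no result was obtained.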

[12] = tested on: wheat; assay: Test C postemergence herbicide test; type: in vivo, Triticum aestivum
In short: as §2

[13] = tested on: Italian ryegrass; assay: Test C postemergence herbicide test; type: in vivo, Lolium multiflorum
In short: as §2

[14] = tested on: eastern black nightshade; assay: Test C pre-/postemergence herbicide test; type: in vivo, Solanum ptycanthum; conditions: preemergence
In short: as §1

[15] = tested on: wild oat; assay: Test C postemergence herbicide test; type: in vivo, Avenafatua
In short: as §2

[16] = tested on: common (oilseed) sunflower; assay: Test C pre-/postemergence herbicide test; type: in vivo, Helianthus annuus; conditions: preemergence
In short: as §1

[17] = Postemergence, 500 g ai/ha, scale 0 to 100
[18] = Postemergence, 250 g ai/ha, scale 0 to 100, 0 no effect, 100 complete control
[19] = postemergence, 125 g ai/ha, scale 0 to 100
[20] = postemergence, 62 g ai/ha, scale 0 to 100
[21] = 500 g ai/ha, scale 0 to 100 (0 no effect, 100 complete control), visual, 12 to 14 days
[22] = 62 g ai/ha, preemergence, scale 0 to 100
[23] = 125 g ai/ha, scale 0 (no effect) to 100 (complete control), visual, 12 to 14 days, preemergence
[24] = 250 g ai/ha, scale 0-100, preemergence
[25] = 500 g ai/ha, scale 0 to 100 (0 no effect, 100 complete control), visual, 12 to 14 days, preemergence

C#CCOC(=O)c1cccc(NC(=O)c2cc(C(C)(C)C)nn2CC)c1 [Compound 84]
Lambsquarters plant response rating [1, 17]: 50
Plant response rating, Lambsquarters [1, 18]: 0
Plant response rating, Lambsquarters [1, 19]: 0
Plant response rating, Lambsquarters [1, 20]: 0
Cocklebur plant response rating ([2]; Postemergence, scale 0 to 100): 0
Plant response rating, Cocklebur [2, 18]: 0
Plant response rating, Cocklebur [2, 19]: 0
Plant response rating, Cocklebur [2, 20]: 0
Kochia plant response rating [3, 17]: 80
Plant response rating, Kochia [3, 18]: 10
Plant response rating, Kochia [3, 19]: 0
Plant response rating, Kochia [3, 20]: 0
Corn plant response rating [4, 17]: 0
Plant response rating, Corn [4, 18]: 0
Plant response rating, Corn [4, 19]: 0
Plant response rating, Corn [4, 20]: 0
Chickweed plant response rating [5, 17]: 70
Plant response rating, Chickweed [5, 18]: 70
Plant response rating, Chickweed [5, 19]: 50
Plant response rating, Chickweed [5, 20]: 0
Johnsongrass plant response rating [6, 17]: 0
Plant response rating, Johnsongrass [6, 18]: 0
Plant response rating, Johnsongrass [6, 19]: 0
Plant response rating, Johnsongrass [6, 20]: 0
Barnyardgrass plant response rating ([7]; Postemergence, 500 g ai/ha, 0 to 100 scale, 0 no effect, 100 complete control): 15
Plant response rating, Barnyardgrass ([7]; Postemergence, 2000 g ai/ha, 0 to 100 scale, 0 no effect, 100 complete control): 10
Barnyardgrass plant response rating ([7]; Preemergence, 500 g ai/ha, visual rating, 0 to 100 scale (0 no effect, 100 complete control)): 0
Barnyardgrass plant response rating ([7]; Preemergence, 2000 g ai/ha, 0 to 100 scale, 0 no effect, 100 complete control): 0
Cupgrass, Woolly plant response rating [8, 17]: 0
Plant response rating, Cupgrass, Woolly [8, 18]: 0
Plant response rating, Cupgrass, Woolly [8, 19]: 0
Plant response rating, Cupgrass, Woolly [8, 20]: 0
Surinam Grass plant response rating [9, 17]: 10
Plant response rating, Surinam Grass [9, 18]: 0
Plant response rating, Surinam Grass [9, 19]: 0
Plant response rating, Surinam Grass [9, 20]: 0

CCn1nc(C(C)(C)C)cc1C(=O)Nc1cccc(OC(F)(F)C(F)F)c1 [Compound 333]
Rice plant response rating ([10]; 62 g ai/ha, scale 0 to 100): 0
Rice plant response rating ([10]; 125 g ai/ha, scale 0 to 100 (0 no effect, 100 complete control)): 0
Rice plant response rating ([10]; 250 g ai/ha, scale of 0 to 100, 0 is no effect, 100 is complete control): 15
Plant response rating, Rice ([10]; 500 g ai/ha, visual rating after 12 to 14 days, scale 0 to 100 (0 no effect, 100 complete control)): 20
Bromegrass, Downy plant response rating [11, 17]: 45
Plant response rating, Bromegrass, Downy [11, 18]: 45
Plant response rating, Bromegrass, Downy [11, 20]: 40
Wheat plant response rating [12, 17]: 55
Plant response rating, Wheat [12, 18]: 50
Plant response rating, Wheat [12, 19]: 50
Plant response rating, Wheat [12, 20]: 40
Ryegrass, Italian plant response rating [13, 17]: 55
Plant response rating, Ryegrass, Italian [13, 18]: 50
Plant response rating, Ryegrass, Italian [13, 19]: 35
Plant response rating, Ryegrass, Italian [13, 20]: 35
Plant response rating, Nightshade ([14]; 125 g ai/ha, scale 0 (no effect) to 100 (complete control), visual, 12 to 14 days): 20
Plant response rating, Nightshade ([14]; 250 g ai/ha, scale 0-100): 98
Plant response rating, Nightshade [14, 21]: 100
Oat, Wild plant response rating [15, 17]: 55
Plant response rating, Oat, Wild [15, 18]: 60
Plant response rating, Oat, Wild [15, 19]: 60
Plant response rating, Oat, Wild [15, 20]: 50
Plant response rating, Lambsquarters [1, 22]: 95
Plant response rating, Lambsquarters [1, 23]: 100
Plant response rating, Lambsquarters [1, 24]: 100
Plant response rating, Lambsquarters [1, 25]: 100
Lambsquarters plant response rating [1, 17]: 100
Plant response rating, Lambsquarters [1, 18]: 80
Plant response rating, Lambsquarters [1, 19]: 80
Plant response rating, Lambsquarters [1, 20]: 60
Plant response rating, Cocklebur [2, 22]: 0
Plant response rating, Cocklebur [2, 23]: 0
Plant response rating, Cocklebur [2, 24]: 0
Plant response rating, Cocklebur [2, 18]: 80
Cocklebur plant response rating ([2]; Preemergence, scale 0 to 100, 0 no effect, 100 complete control): 5
Plant response rating, Cocklebur [2, 19]: 5
Plant response rating, Cocklebur [2, 20]: 0
Plant response rating, Kochia [3, 22]: 80
Plant response rating, Kochia [3, 23]: 100
Plant response rating, Kochia [3, 24]: 100
Plant response rating, Kochia [3, 25]: 100
Kochia plant response rating [3, 17]: 100
Plant response rating, Kochia [3, 18]: 100
Plant response rating, Kochia [3, 19]: 100
Plant response rating, Kochia [3, 20]: 90
Plant response rating, Corn [4, 22]: 0
Plant response rating, Corn [4, 23]: 0
Plant response rating, Corn [4, 24]: 0
Plant response rating, Corn [4, 25]: 0
Corn plant response rating [4, 17]: 5
Plant response rating, Corn [4, 18]: 5
Plant response rating, Corn [4, 19]: 5
Plant response rating, Corn [4, 20]: 5
Plant response rating, Johnsongrass [6, 22]: 0
Plant response rating, Johnsongrass [6, 23]: 0
Plant response rating, Johnsongrass [6, 24]: 5
Plant response rating, Johnsongrass [6, 25]: 5
Johnsongrass plant response rating [6, 17]: 0
Plant response rating, Johnsongrass [6, 18]: 0
Plant response rating, Johnsongrass [6, 19]: 0
Plant response rating, Johnsongrass [6, 20]: 0
Plant response rating, Cupgrass, Woolly [8, 22]: 0
Plant response rating, Cupgrass, Woolly [8, 23]: 0
Plant response rating, Cupgrass, Woolly [8, 24]: 0
Plant response rating, Cupgrass, Woolly [8, 25]: 30
Cupgrass, Woolly plant response rating [8, 17]: 10
Plant response rating, Cupgrass, Woolly [8, 18]: 5
Plant response rating, Cupgrass, Woolly [8, 19]: 0
Plant response rating, Cupgrass, Woolly [8, 20]: 0
Plant response rating, Sunflower ([16]; 62 g ai/ha, scale 0 to 100): 0
Plant response rating, Sunflower ([16]; 250 g ai/ha, scale 0-100): 0
Plant response rating, Sunflower [16, 21]: 0
Plant response rating, Surinam Grass [9, 24]: 5
Plant response rating, Surinam Grass [9, 25]: 20
Surinam Grass plant response rating [9, 17]: 10
Plant response rating, Surinam Grass [9, 18]: 5
Plant response rating, Surinam Grass [9, 19]: 5
Plant response rating, Surinam Grass [9, 20]: 5
